This experiment addresses ROCK2 (human) (UniProt O75116). Nature of the experiment: Inhibition of ROCK2 Kinase Activity.

What is called IC50 is the concentration that gives 50% inhibition. Read a low IC50 as greater potency in that assay.

Chain of ROCK2 (human) (O75116 whole entry, looked up): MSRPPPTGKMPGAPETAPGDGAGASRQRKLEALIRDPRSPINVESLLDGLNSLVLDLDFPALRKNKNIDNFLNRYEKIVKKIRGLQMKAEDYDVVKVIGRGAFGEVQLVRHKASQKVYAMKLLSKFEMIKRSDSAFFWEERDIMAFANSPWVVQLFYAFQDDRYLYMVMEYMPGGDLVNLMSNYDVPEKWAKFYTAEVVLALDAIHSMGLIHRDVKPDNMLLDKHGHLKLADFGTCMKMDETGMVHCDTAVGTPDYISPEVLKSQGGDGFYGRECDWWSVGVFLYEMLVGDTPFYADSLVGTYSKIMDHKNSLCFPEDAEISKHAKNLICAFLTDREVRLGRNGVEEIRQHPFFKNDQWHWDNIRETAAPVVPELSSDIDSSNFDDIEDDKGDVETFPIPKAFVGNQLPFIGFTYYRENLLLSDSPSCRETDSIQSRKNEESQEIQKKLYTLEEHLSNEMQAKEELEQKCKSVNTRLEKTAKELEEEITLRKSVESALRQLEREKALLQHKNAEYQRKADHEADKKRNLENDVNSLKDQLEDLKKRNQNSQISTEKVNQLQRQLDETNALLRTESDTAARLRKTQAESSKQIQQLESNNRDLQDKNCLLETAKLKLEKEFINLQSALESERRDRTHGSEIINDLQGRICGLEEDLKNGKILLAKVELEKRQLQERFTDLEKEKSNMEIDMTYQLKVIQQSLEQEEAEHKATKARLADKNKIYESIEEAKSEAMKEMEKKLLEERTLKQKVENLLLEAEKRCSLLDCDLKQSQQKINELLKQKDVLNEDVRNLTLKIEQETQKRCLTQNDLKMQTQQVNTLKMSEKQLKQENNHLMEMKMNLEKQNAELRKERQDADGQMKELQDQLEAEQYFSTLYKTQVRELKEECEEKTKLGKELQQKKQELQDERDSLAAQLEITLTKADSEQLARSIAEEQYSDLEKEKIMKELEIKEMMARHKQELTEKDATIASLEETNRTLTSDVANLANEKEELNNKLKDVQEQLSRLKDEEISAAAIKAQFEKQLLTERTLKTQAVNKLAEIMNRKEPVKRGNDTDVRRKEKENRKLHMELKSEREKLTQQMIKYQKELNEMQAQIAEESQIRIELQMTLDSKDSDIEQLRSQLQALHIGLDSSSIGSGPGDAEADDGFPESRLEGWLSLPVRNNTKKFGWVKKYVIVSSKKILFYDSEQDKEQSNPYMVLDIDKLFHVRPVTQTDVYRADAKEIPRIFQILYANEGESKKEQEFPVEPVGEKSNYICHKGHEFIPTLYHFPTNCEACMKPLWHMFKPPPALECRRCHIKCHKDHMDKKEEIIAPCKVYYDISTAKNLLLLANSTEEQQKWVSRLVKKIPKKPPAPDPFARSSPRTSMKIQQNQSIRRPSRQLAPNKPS

In turn, `O=Cc1ccc(C(=O)NCc2nc(-c3ccncc3)n[nH]2)cc1` registered an IC50 of over 5 µM. Molecule `O=C(NCc1nc(-c2ccncc2)n[nH]1)c1cnc(O)c(Cl)c1` yielded an IC50 of over 5 µM. Next, `O=C(NCc1nc(-c2ccncc2)n[nH]1)c1cccc(Oc2ccccc2)c1`: over 5 µM; `Cc1cc(C)cc(C(=O)NCc2nc(-c3ccncc3)n[nH]2)c1`: over 5 µM. Next, `CC(C)(C)OC(=O)N1CCCCC1C(=O)NCc1nc(-c2c[nH]c3ncccc23)n[nH]1` (centres undefined): over 5 µM; `O=C(NCc1nc(-c2c[nH]c3ncccc23)n[nH]1)c1ccc(F)c(F)c1`: over 5 µM; `COc1cccc(OC)c1C(=O)NCc1nc(-c2ccncc2)n[nH]1`: over 5 µM. `Cc1ccc(C(=O)NCc2nc(-c3ccncc3)n[nH]2)cc1F` had an IC50 of over 5 µM. `O=C(NCc1nc(-c2c[nH]c3ncccc23)n[nH]1)c1ccc(F)cc1F` yielded an IC50 of over 5 µM. In the case of `COc1cc(OC)cc(C(=O)NCc2nc(-c3c[nH]c4ncccc34)n[nH]2)c1`, the IC50 was over 5 µM. In the case of `O=C(NCc1nc(-c2c[nH]c3ncccc23)n[nH]1)c1c(F)cccc1Cl`, the IC50 is over 5 µM. Turning to `O=C(NCc1nc(-c2ccncc2)n[nH]1)c1cccc([N+](=O)[O-])c1`, the IC50 was over 5 µM. `COc1ccc2cc(C(C)C(=O)NCc3nc(-c4c[nH]c5ncccc45)n[nH]3)ccc2c1` (centres undefined) had an IC50 of over 5 µM.

`CC(C(=O)NCc1nc(-c2ccncc2)n[nH]1)c1ccc(O)cc1` (centres undefined) displayed an IC50 of over 5 µM. The molecule `COc1cc(C(=O)NCc2nc(-c3ccncc3)n[nH]2)cc(Cl)n1` had an IC50 of over 5 µM. With `O=C(CCc1nc(-c2ccncc2)n[nH]1)c1ccc(O)cc1`, the IC50 is at most 5 µM. Regarding `COc1ccc(C(=O)NCc2nc(-c3c[nH]c4ncccc34)n[nH]2)cc1`, the IC50 is over 5 µM. Next, `Cc1cc(C)cc(C(=O)NCc2nc(-c3c[nH]c4ncccc34)n[nH]2)c1`: over 5 µM; `O=C(NCc1nc(-c2c[nH]c3ncccc23)n[nH]1)c1cc(F)c(F)cc1[N+](=O)[O-]`: over 5 µM; `CC(C)(C)OC(=O)N1CCCC1C(=O)NCc1nc(-c2ccncc2)n[nH]1` (centres undefined): over 5 µM. Regarding `O=C(NCc1nc(-c2c[nH]c3ncccc23)n[nH]1)C(Cl)(Cl)Cl`, the half-inhibitory concentration (IC50) is over 5 µM.

Regarding `Clc1ccc(SCc2n[nH]c(-c3ccncc3)n2)cc1`, the IC50 was at most 5 µM. Next, `O=C(NCc1nc(-c2ccncc2)n[nH]1)c1ccc([N+](=O)[O-])c(O)c1`: at most 5 µM; `O=C(NCc1nc(-c2c[nH]c3ncccc23)n[nH]1)c1cccc(F)c1`: over 5 µM. In the case of `O=C(NCc1nc(-c2c[nH]c3ncccc23)n[nH]1)c1cccc(Cl)c1Cl`, the IC50 is over 5 µM.

With `O=C(C=Cc1ccccc1)NCc1nc(-c2ccncc2)n[nH]1`, the IC50 is over 5 µM.

In the case of `O=C(NCc1nc(-c2c[nH]c3ncccc23)n[nH]1)c1cc([N+](=O)[O-])ccc1F`, the IC50 was over 5 µM. In turn, `O=C(NCc1nc(-c2ccncc2)n[nH]1)c1cc2ccccc2o1` returned an IC50 of over 5 µM.

In turn, `O=C(NCc1nc(-c2ccncc2)n[nH]1)c1cc2ccccc2cc1O` yielded an IC50 of at most 5 µM.

In turn, `O=C(CCc1nc2ccccc2[nH]1)NCc1nc(-c2ccncc2)n[nH]1` returned an IC50 of over 5 µM.

Take `O=C(NCc1nc(-c2ccncc2)n[nH]1)c1c2ccccc2cc2ccccc12`: the IC50 is over 5 µM.

`O=C(NCc1nc(-c2c[nH]c3ncccc23)n[nH]1)c1cncc(Br)c1` came in with an IC50 of over 5 µM. The molecule `CC(=O)Oc1ccc(C(=O)NCc2nc(-c3ccncc3)n[nH]2)cc1` returned an IC50 of at most 5 µM.

`O=C(NCc1nc(-c2c[nH]c3ncccc23)n[nH]1)c1cc([N+](=O)[O-])ccc1Cl` displayed an IC50 of over 5 µM. Next, `O=C(NCc1nc(-c2ccncc2)n[nH]1)c1ccc(-c2ccc(O)cc2)cc1`: over 5 µM. As to `O=C(NCc1nc(-c2ccncc2)n[nH]1)c1ccccc1O`, the IC50 is at most 5 µM. Next, `O=C(NCc1nc(-c2ccncc2)n[nH]1)c1cc([N+](=O)[O-])ccc1F`: over 5 µM.

Take `CC(=O)NCc1nc(-c2c[nH]c3ncccc23)n[nH]1`: the IC50 is over 5 µM. The molecule `COc1ccc(C(=O)NCc2nc(-c3c[nH]c4ncccc34)n[nH]2)cc1O` displayed an IC50 of over 5 µM. In the case of `Cc1ccc(C(=O)NCc2nc(-c3ccncc3)n[nH]2)s1`, the IC50 was at most 5 µM.

Regarding `O=C(NCc1nc(-c2c[nH]c3ncccc23)n[nH]1)c1cc(Br)ccc1Cl`, the IC50 is over 5 µM. `Cc1ccc(F)cc1C(=O)NCc1nc(-c2c[nH]c3ncccc23)n[nH]1` had an IC50 of over 5 µM.

For the molecule `O=C(NCc1nc(-c2ccncc2)n[nH]1)c1ccncc1`, the IC50 is over 5 µM. `O=C(NCc1nc(-c2ccncc2)n[nH]1)C1CCc2ccccc2C1` (centres undefined) came in with an IC50 of over 5 µM. Next, `O=C(Cc1ccc(C(F)(F)F)cc1)NCc1nc(-c2c[nH]c3ncccc23)n[nH]1`: over 5 µM. As for `CC(C)C(NC(=O)OC(C)(C)C)C(=O)NCc1nc(-c2ccncc2)n[nH]1` (centres undefined), the IC50 is over 5 µM.

In the case of `O=C(NCc1nc(-c2c[nH]c3ncccc23)n[nH]1)c1ccccn1`, the IC50 was over 5 µM.

With `CC(C)(C)OC(=O)N1CCNC(C(=O)NCc2nc(-c3ccncc3)n[nH]2)C1` (centres undefined), the IC50 was over 5 µM. The molecule `CS(=O)(=O)Nc1cccc(C(=O)NCc2nc(-c3c[nH]c4ncccc34)n[nH]2)c1` came in with an IC50 of at most 5 µM. Take `O=C(NCc1nc(-c2ccncc2)n[nH]1)c1cccs1`: the IC50 is at most 5 µM. Next, `COc1cc(C(=O)NCc2nc(-c3ccncc3)n[nH]2)c([N+](=O)[O-])cc1OC`: over 5 µM; `O=C(NCc1nc(-c2c[nH]c3ncccc23)n[nH]1)c1ccc(Cl)c(Br)c1`: over 5 µM.

`COc1ccc(Cl)cc1C(=O)NCc1nc(-c2c[nH]c3ncccc23)n[nH]1` gave an IC50 of over 5 µM.

The molecule `COc1ccc(O)c(C(=O)NCc2nc(-c3c[nH]c4ncccc34)n[nH]2)c1` registered an IC50 of over 5 µM.

For `CCCc1ccc(C(=O)NCc2nc(-c3c[nH]c4ncccc34)n[nH]2)cc1`, the IC50 is over 5 µM. Molecule `O=C(NCc1nc(-c2ccncc2)n[nH]1)c1ccc(I)cc1` had an IC50 of over 5 µM. As to `O=C(NCc1nc(-c2c[nH]c3ncccc23)n[nH]1)c1ccc([N+](=O)[O-])c(O)c1`, the IC50 is over 5 µM. `c1ccc2c(NCc3nc(-c4ccncc4)n[nH]3)n[nH]c2c1` registered an IC50 of over 5 µM.

Take `O=C(NCc1nc(-c2ccncc2)n[nH]1)c1cc(Cl)ccc1[N+](=O)[O-]`: the IC50 was over 5 µM. For the molecule `O=C(Cc1ccc(C(F)(F)F)cc1)NCc1nc(-c2ccncc2)n[nH]1`, the IC50 is over 5 µM. In turn, `O=C(NCc1nc(-c2ccncc2)n[nH]1)c1cccnc1` came in with an IC50 of over 5 µM. In the case of `O=C(NCc1nc(-c2ccncc2)n[nH]1)c1cscn1`, the IC50 was over 5 µM. Take `O=C(NCc1nc(-c2c[nH]c3ncccc23)n[nH]1)C(F)(F)F`: the IC50 was over 5 µM. The molecule `CC(C)(C)C(=O)Oc1ccc(C(=O)NCc2nc(-c3ccncc3)n[nH]2)cc1` had an IC50 of over 5 µM.

`CC(C)(C)OC(=O)N1CCNC(C(=O)NCc2nc(-c3c[nH]c4ncccc34)n[nH]2)C1` (centres undefined) had an IC50 of over 5 µM. `CC(C)Cc1ccc(C(C)C(=O)NCc2nc(-c3c[nH]c4ncccc34)n[nH]2)cc1` (centres undefined) returned an IC50 of over 5 µM. Next, `COc1cc(C(=O)NCc2nc(-c3c[nH]c4ncccc34)n[nH]2)cc(OC)c1OC`: over 5 µM; `O=C(NCc1nc(-c2c[nH]c3ncccc23)n[nH]1)c1ccc(Cl)nc1`: over 5 µM; `CC(C(=O)NCc1nc(-c2ccncc2)n[nH]1)c1ccc(-c2ccccc2)c(F)c1` (centres undefined): over 5 µM. With `CC(=O)Oc1cccc(C(=O)NCc2nc(-c3ccncc3)n[nH]2)c1`, the IC50 is over 5 µM. With `Cc1cccc([N+](=O)[O-])c1C(=O)NCc1nc(-c2ccncc2)n[nH]1`, the IC50 was over 5 µM. `O=C(O)c1ccc(C(=O)NCc2nc(-c3ccncc3)n[nH]2)cc1` displayed an IC50 of at most 5 µM. `COc1ccc(C(=O)NCc2nc(-c3ccncc3)n[nH]2)c(OC)c1OC` showed an IC50 of over 5 µM. `O=C(NCc1nc(-c2c[nH]c3ncccc23)n[nH]1)c1cccc2ccccc12` had an IC50 of over 5 µM. Molecule `CC(=O)NC(Cc1ccc(O)cc1)C(=O)NCc1nc(-c2c[nH]c3ncccc23)n[nH]1` (centres undefined) gave an IC50 of over 5 µM. `CC(CC(=O)NCc1nc(-c2ccncc2)n[nH]1)CC(C)(C)C` (centres undefined) showed an IC50 of over 5 µM. With `COc1ccc(Cl)cc1C(=O)NCc1nc(-c2ccncc2)n[nH]1`, the IC50 is over 5 µM. Next, `COc1cc(OC)c(C(=O)NCc2nc(-c3ccncc3)n[nH]2)cc1OC`: over 5 µM; `O=C(NCc1nc(-c2ccncc2)n[nH]1)c1ccc([N+](=O)[O-])cc1Cl`: over 5 µM.

`O=C(C=Cc1ccccc1O)NCc1nc(-c2c[nH]c3ncccc23)n[nH]1` showed an IC50 of over 5 µM.

As to `COc1ccccc1CC(=O)NCc1nc(-c2c[nH]c3ncccc23)n[nH]1`, the IC50 is over 5 µM.

Take `O=C(NCc1nc(-c2c[nH]c3ncccc23)n[nH]1)c1cccc(Oc2ccccc2)c1`: the IC50 was over 5 µM. The molecule `O=C(NCc1nc(-c2c[nH]c3ncccc23)n[nH]1)c1ncc[nH]1` gave an IC50 of over 5 µM.

For the molecule `COc1cc(OC)c(C(=O)NCc2nc(-c3ccncc3)n[nH]2)c(OC)c1`, the IC50 is over 5 µM. On to `COc1ccc(OC)c(C(=O)NCc2nc(-c3ccncc3)n[nH]2)c1`, for which the IC50 was over 5 µM. Molecule `O=C(NCc1nc(-c2ccncc2)n[nH]1)C(F)(F)F` gave an IC50 of over 5 µM. The molecule `COc1ccc(C(=O)NCc2nc(-c3c[nH]c4ncccc34)n[nH]2)c(O)c1` gave an IC50 of over 5 µM. Next, `Cc1ccc([N+](=O)[O-])c(C(=O)NCc2nc(-c3c[nH]c4ncccc34)n[nH]2)c1`: over 5 µM; `O=C(NCc1nc(-c2ccncc2)n[nH]1)c1ccccc1Cc1ccccc1`: over 5 µM. Next, `O=C(NCc1nc(-c2ccncc2)n[nH]1)c1ccc2cccc(O)c2n1`: over 5 µM; `Cc1cccc(CCC(=O)NCc2nc(-c3c[nH]c4ncccc34)n[nH]2)c1`: over 5 µM. Molecule `Cc1ccccc1CC(=O)NCc1nc(-c2c[nH]c3ncccc23)n[nH]1` gave a concentration for half-maximal inhibition (IC50) of over 5 µM. Molecule `Cc1ccc(C)c(C(=O)NCc2nc(-c3c[nH]c4ncccc34)n[nH]2)c1` gave an IC50 of over 5 µM. In the case of `COc1ccc(OC)c(C(=O)NCc2nc(-c3c[nH]c4ncccc34)n[nH]2)c1`, the IC50 is over 5 µM.

The record behind these values is the Kinase Knowledgebase extract (Sharma et al. 2016).
